Measured values published in US12077503B2, “Substituted cyclic amides and their use as herbicides” (FMC CORPORATION, priority 2015, dated 2024).

How the values were obtained:
Assay type in all cases: in vivo
Kochia (Kochia scoparia) = assay: Test A preemergence; conditions: Bassia scoparia, pre-emergence, 240 h, preemergence, read-out: Plant response rating, Kochia; for pest or weed control at 125 g/ha: 125 g ai/ha, visual rating after approx. 10 d, 0 to 100 scale where 0 is no effect and 100 is complete control; for pest or weed control at 500 g/ha: 500 g ai/ha, 0 to 100 scale, 0 = no effect, 100 = complete control
Method in brief: (§1)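 Visual injury, scored on a 0–100 scale relative to untreated controls, was recorded about 10 d after application. Treatments were a preemergence soil spray over planted seeds or a postemergence spray on plants at the one- to two-leaf stage, 2 to 10 cm tall, all in loam soil–sand blend in the greenhouse.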

[1] = tested on: barnyardgrass (Echinochloa crus-galli); assay: Test A preemergence; conditions: Echinochloa crus-galli, pre-emergence, 240 h, preemergence, read-out: Plant response rating, Barnyardgrass; for pest or weed control at 125 g/ha: 125 g ai/ha, visual rating after approx. 10 d, 0 to 100 scale where 0 is no effect and 100 is complete control; for pest or weed control at 500 g/ha: 500 g ai/ha, 0 to 100 scale, 0 = no effect, 100 = complete control
Method in brief: as §1

[2] = tested on: giant foxtail (Setaria faberii); assay: Test A preemergence; conditions: Setaria faberi, pre-emergence, 240 h, preemergence, read-out: Plant response rating, Foxtail, Giant; for pest or weed control at 125 g/ha: 125 g ai/ha, visual rating after approx. 10 d, 0 to 100 scale where 0 is no effect and 100 is complete control; for pest or weed control at 500 g/ha: 500 g ai/ha, 0 to 100 scale, 0 = no effect, 100 = complete control
Method in brief: as §1

[3] = tested on: pigweed (Amaranthus retroflexus); assay: Test A preemergence; conditions: Amaranthus retroflexus, pre-emergence, 240 h, preemergence, read-out: Plant response rating, Pigweed; for pest or weed control at 125 g/ha: 125 g ai/ha, visual rating after approx. 10 d, 0 to 100 scale where 0 is no effect and 100 is complete control; for pest or weed control at 500 g/ha: 500 g ai/ha, 0 to 100 scale, 0 = no effect, 100 = complete control
[4] = tested on: ragweed (common ragweed, Ambrosia elatior); assay: Test A preemergence; conditions: Ambrosia artemisiifolia, pre-emergence, 240 h, preemergence, read-out: Plant response rating, Ragweed; for pest or weed control at 125 g/ha: 125 g ai/ha, visual rating after approx. 10 d, 0 to 100 scale where 0 is no effect and 100 is complete control; for pest or weed control at 500 g/ha: 500 g ai/ha, 0 to 100 scale, 0 = no effect, 100 = complete control
Method in brief: as §1

[5] = tested on: ryegrass, Italian (Italian ryegrass, Lolium multiflorum); assay: Test A preemergence; conditions: Lolium multiflorum, pre-emergence, 240 h, preemergence, read-out: Plant response rating, Ryegrass, Italian; for pest or weed control at 125 g/ha: 125 g ai/ha, visual rating after approx. 10 d, 0 to 100 scale where 0 is no effect and 100 is complete control; for pest or weed control at 500 g/ha: 500 g ai/ha, 0 to 100 scale, 0 = no effect, 100 = complete control
Method in brief: as §1

corn (Zea mays) = assay: Test A postemergence; conditions: Zea mays, post-emergence, 240 h, 125 g ai/ha, postemergence; visual injury after approximately 10 d; 0 to 100 scale (0 no effect, 100 complete control)
Method in brief: as §1

[6] = tested on: pigweed (Amaranthus retroflexus); assay: Test A postemergence; conditions: Amaranthus retroflexus, post-emergence, 240 h, 125 g ai/ha, postemergence; visual injury after approximately 10 d; 0 to 100 scale (0 no effect, 100 complete control); read-out: Plant response rating, Pigweed
Method in brief: as §1

[7] = tested on: ryegrass, Italian (Italian ryegrass, Lolium multiflorum); assay: Test A postemergence; conditions: Lolium multiflorum, post-emergence, 240 h, 125 g ai/ha, postemergence; visual injury after approximately 10 d; 0 to 100 scale (0 no effect, 100 complete control); read-out: Plant response rating, Ryegrass, Italian
Method in brief: as §1

[8] = tested on: wheat (Triticum aestivum); assay: Test A postemergence; conditions: Triticum aestivum, post-emergence, 240 h, 125 g ai/ha, postemergence; visual injury after approximately 10 d; 0 to 100 scale (0 no effect, 100 complete control); read-out: Plant response rating, Wheat
Method in brief: as §1

[9] = tested on: barnyardgrass (Echinochloa crus-galli); assay: Test B flooded paddy test; conditions: Echinochloa crus-galli, Flood, 250 g ai/ha; scale of 0 to 100 where 0 is no effect and 100 is complete control; read-out: Barnyardgrass plant response rating
Method in brief: (§2)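 Response scored visually against untreated controls, 0 = no effect and 100 = complete control, 13–15 d after treatment in the greenhouse. Compounds added to paddy water held 3 cm above soil surface. Treatment given at 2-leaf stage.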

[10] = tested on: ducksalad (Heteranthera limosa); assay: Test B flooded paddy test; conditions: Heteranthera limosa, Flood, 250 g ai/ha; scale of 0 to 100 where 0 is no effect and 100 is complete control; read-out: Ducksalad plant response rating
Method in brief: as §2

rice (Oryra sativa) = assay: Test B flooded paddy test; conditions: Oryza sativa, Flood, 250 g ai/ha; scale of 0 to 100 where 0 is no effect and 100 is complete control; read-out: Rice plant response rating
Method in brief: as §2

[11] = tested on: sedge, umbrella (small-flower umbrella sedge, Cyperus difformis); assay: Test B flooded paddy test; conditions: Cyperus difformis, Flood, 250 g ai/ha; scale of 0 to 100 where 0 is no effect and 100 is complete control; read-out: Sedge, Umbrella plant response rating
Method in brief: as §2

Compound | pest or weed control at 125 g/ha (Kochia (Kochia scoparia)) [%] | pest or weed control at 500 g/ha (Kochia (Kochia scoparia)) [%] | pest or weed control at 125 g/ha [1] [%] | pest or weed control at 500 g/ha [1] [%] | pest or weed control at 125 g/ha [2] [%] | pest or weed control at 500 g/ha [2] [%] | pest or weed control at 125 g/ha [3] [%] | pest or weed control at 500 g/ha [3] [%] | pest or weed control at 125 g/ha [4] [%] | pest or weed control at 500 g/ha [4] [%] | pest or weed control at 125 g/ha [5] [%] | pest or weed control at 500 g/ha [5] [%] | Corn plant response rating (crop injury, 0 = no effect, 100 = complete kill) at 125 g/ha (corn (Zea mays)) [%] | pest or weed control at 125 g/ha [6] [%] | pest or weed control at 125 g/ha [7] [%] | plant injury at 125 g/ha [8] [%] | pest or weed control at 250 g/ha [9] [%] | pest or weed control at 250 g/ha [10] [%] | pest or weed control at 250 g/ha (rice (Oryra sativa)) [%] | pest or weed control at 250 g/ha [11] [%]
CN1C[C@H](c2ccc(F)c(OC(F)(F)C(F)F)c2)[C@@H](C(=O)Nc2ccccc2F)C1=O [Compound 740] | 80 | 90 | 90 | 90 | 100 | 100 | 70 | 80 | 40 | 50 | 60 | 80 | 70 | 40 | 50 | 50 | 60 | 100 | 50 | 0
CN1C[C@H](c2cccc(C(F)(F)F)c2)[C@@H](C(=O)Nc2ccccc2C2CC2)C1=O [Compound 749] | 0 | 20 | 0 | 20 | 50 | 90 | 0 | 0 | 0 | 0 | 0 | 20 | 0 | 0 | 0 | 0 | 0 | 20 | 0 | 0
O=C1NC[C@H](c2csc3ccccc23)[C@H]1C(=O)Nc1ccccc1F [Compound 750] | 0 | 0 | 80 | 90 | 50 | 90 | 0 | 0 | 0 | 0 | 0 | 20 | 0 | 0 | 0 | 0 | 0 | 90 | 0 | 0
O=C1NC[C@H](c2csc3ccccc23)[C@H]1C(=O)Nc1cccc(F)c1F [Compound 751] | 20 |  | 90 | 90 | 80 | 90 | 0 | 0 | 20 | 40 | 0 | 20 | 0 | 0 | 0 | 0 | 40 | 100 | 30 | 0
CN1C[C@H](c2cc(F)cc(F)c2)[C@@H](C(=O)NC2CCc3ccccc32)C1=O (some centres unmarked) [Compound 755] | 0 | 0 | 0 | 0 | 0 | 0 | 0 | 0 | 0 | 0 | 0 | 0 | 0 | 0 | 0 | 0 | 0 | 0 | 0 | 0
Cc1ccc(NC(=O)[C@H]2C(=O)N(C)C[C@@H]2c2cc(F)cc(F)c2)c(F)c1 [Compound 760] | 0 | 60 | 100 | 100 | 100 | 100 | 0 | 0 | 0 | 0 | 0 |  | 0 | 0 | 0 | 0 | 50 | 80 | 0 | 0
Cc1ccc([C@H]2CNC(=S)[C@@H]2C(=O)Nc2cccc(F)c2F)cc1C [Compound 765] | 0 | 0 | 100 | 100 | 30 | 80 | 0 | 0 | 0 | 30 | 0 |  | 0 | 0 | 40 | 0 | 40 | 100 | 20 | 0
